Series [1] concerns the target T1, Vasoactive intestinal polypeptide receptor 1 (Homo sapiens, UniProt P32241). Also: in other assays of this panel Not Active means under 50% inhibition at 10 µM.
T1 sequence (P32241 whole entry): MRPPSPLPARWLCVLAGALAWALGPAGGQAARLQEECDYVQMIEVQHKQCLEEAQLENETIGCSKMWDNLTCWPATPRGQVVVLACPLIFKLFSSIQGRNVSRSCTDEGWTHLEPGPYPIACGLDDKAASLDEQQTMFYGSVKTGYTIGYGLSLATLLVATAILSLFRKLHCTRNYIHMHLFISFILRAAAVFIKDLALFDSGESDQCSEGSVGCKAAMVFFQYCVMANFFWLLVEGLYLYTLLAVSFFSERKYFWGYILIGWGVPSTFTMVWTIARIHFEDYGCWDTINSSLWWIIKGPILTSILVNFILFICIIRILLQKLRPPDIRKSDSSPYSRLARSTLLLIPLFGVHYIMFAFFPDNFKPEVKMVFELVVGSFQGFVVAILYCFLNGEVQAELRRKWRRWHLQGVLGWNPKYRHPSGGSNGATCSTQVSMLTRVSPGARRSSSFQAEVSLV
Format: cell membranes, Membrane. To be noted: ht-29.

Series [2] can be described thus: DRUGMATRIX: Atrial Natriuretic Factor (ANF) radioligand binding (ligand: [125I] ANF (rat)). The class given is cell membranes, Cavia porcellus, Dunkin-Hartley, Adrenal gland, Membrane. To be noted: Not Active = under 50% inhibition at 10 µM.
Series [3] has as its target T2, Muscarinic acetylcholine receptor M4 (Homo sapiens, UniProt P08173). Also: in other assays of this panel Not Active means under 50% inhibition at 10 µM.
T2 sequence (P08173 whole entry): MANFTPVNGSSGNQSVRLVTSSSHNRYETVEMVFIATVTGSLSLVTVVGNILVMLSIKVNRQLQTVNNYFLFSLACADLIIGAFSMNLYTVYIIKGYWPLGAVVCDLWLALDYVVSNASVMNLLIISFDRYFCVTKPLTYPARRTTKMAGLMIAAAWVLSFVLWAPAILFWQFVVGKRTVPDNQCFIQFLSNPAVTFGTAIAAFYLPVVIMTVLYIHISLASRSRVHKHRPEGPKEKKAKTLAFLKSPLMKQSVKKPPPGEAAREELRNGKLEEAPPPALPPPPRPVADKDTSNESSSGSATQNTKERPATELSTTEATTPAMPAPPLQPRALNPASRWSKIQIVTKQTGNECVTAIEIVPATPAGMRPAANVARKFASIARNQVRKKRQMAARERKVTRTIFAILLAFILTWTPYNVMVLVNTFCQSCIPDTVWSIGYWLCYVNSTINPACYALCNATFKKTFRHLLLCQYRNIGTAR
Format: cell membranes, CHO-K1, Membrane. To be noted: for Ki: read-out: Ki.

The next series has as its target T3, B2 bradykinin receptor (Homo sapiens, UniProt P30411). Also: in other assays of this panel Not Active means under 50% inhibition at 10 µM.
T3 sequence (P30411 whole entry): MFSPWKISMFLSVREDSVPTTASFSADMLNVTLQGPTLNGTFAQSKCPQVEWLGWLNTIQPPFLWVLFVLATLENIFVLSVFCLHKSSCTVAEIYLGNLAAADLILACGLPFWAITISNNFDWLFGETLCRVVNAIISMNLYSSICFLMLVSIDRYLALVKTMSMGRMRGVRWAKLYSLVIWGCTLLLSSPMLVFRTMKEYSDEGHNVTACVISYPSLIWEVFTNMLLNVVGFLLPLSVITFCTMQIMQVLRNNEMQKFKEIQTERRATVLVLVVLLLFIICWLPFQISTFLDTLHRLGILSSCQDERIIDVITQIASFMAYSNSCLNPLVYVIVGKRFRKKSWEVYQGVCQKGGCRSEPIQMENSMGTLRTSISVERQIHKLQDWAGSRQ
The class given is cell membranes, Membrane. To be noted: chem-1.

In series [4] the target is T4, Cholecystokinin receptor type A (Homo sapiens, UniProt P32238). Also: in other assays of this panel Not Active means under 50% inhibition at 10 µM.
T4 sequence (P32238 whole entry): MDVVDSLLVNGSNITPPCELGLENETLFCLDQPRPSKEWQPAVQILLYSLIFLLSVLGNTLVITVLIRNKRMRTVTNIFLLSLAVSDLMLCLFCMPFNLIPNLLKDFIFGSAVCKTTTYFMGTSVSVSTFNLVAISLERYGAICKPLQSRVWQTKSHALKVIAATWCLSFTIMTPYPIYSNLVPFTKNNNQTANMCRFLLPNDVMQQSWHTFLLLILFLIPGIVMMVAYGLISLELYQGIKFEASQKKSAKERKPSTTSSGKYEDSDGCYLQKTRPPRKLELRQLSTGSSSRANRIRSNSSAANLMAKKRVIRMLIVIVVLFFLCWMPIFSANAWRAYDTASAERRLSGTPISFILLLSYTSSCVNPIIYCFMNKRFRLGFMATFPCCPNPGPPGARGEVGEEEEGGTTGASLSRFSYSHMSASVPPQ
Format: cell membranes, Membrane. The conditions noted are these: 1321-n1.

A further series deals with Cytochrome P450 2D6 (Homo sapiens, UniProt P10635). To be noted: bti-tn-5b1-4.
A further series concerns the target T5, Progesterone receptor (Bos taurus, UniProt Q690N0).
T5 sequence (Q690N0 whole entry): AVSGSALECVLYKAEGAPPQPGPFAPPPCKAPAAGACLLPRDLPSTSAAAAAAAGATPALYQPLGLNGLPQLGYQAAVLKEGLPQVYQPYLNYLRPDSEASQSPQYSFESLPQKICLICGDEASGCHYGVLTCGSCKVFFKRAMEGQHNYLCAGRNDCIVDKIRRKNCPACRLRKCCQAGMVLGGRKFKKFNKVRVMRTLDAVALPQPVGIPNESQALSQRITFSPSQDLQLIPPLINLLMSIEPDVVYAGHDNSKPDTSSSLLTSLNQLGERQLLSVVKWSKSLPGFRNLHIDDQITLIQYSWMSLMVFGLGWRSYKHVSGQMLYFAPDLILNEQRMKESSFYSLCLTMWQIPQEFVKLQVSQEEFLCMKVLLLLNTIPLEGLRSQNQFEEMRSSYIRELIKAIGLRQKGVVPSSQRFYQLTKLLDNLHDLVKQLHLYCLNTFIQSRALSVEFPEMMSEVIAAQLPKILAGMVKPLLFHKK
Nature of the series: DRUGMATRIX: Progesterone radioligand binding (ligand: [3H] R-5020). The class given is tissue-based, Uterus. To be noted: Not Active = under 50% inhibition at 10 µM.

Chain of Cytochrome P450 2D6 (P10635 whole entry): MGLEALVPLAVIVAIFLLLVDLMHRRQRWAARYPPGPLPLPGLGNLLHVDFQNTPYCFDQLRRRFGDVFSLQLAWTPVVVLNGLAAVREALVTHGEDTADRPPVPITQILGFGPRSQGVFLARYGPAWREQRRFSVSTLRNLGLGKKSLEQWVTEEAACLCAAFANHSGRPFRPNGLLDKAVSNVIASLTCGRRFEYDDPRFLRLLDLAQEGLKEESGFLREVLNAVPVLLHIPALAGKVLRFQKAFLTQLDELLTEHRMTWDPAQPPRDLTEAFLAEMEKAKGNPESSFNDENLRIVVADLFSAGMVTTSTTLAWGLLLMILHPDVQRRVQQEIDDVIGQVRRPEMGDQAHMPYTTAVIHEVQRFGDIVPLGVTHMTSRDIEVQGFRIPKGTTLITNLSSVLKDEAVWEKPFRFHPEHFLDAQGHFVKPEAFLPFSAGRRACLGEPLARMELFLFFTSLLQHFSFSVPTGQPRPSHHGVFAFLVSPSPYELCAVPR

With `COc1ccc(CCN(C)CCCC(C#N)(c2ccc(OC)c(OC)c2)C(C)C)cc1OC` (stereo not given), the IC50 result (in series [1]; in series [2]; in series [3] (cho-k1); against B2 bradykinin receptor; in series [4]; against Cytochrome P450 2D6) was “Not Active” in each case. The IC50 (as a rule, the midpoint of a concentration-inhibition curve) on Progesterone receptor was “Not Active”. The Ki entry (in series [2]; on Cytochrome P450 2D6) was “Not Active” throughout.
Regarding `CC(C)Cc1ccc([C@@H](C)C(=O)O)cc1` [(R)-IBUPROPHEN], the IC50 result (in series [1]; in series [2]; in series [3] (cho-k1); on B2 bradykinin receptor; in series [4]; against Cytochrome P450 2D6) was “Not Active” throughout. At Progesterone receptor, the IC50 entry was “Not Active”. The Ki result (in series [2]; at Cytochrome P450 2D6) was “Not Active” in each case.
With `CCN(CC)CCOc1ccc(/C(=C(/Cl)c2ccccc2)c2ccccc2)cc1` [ENCLOMIPHENE], the IC50 result in series [1] was “Not Active”; in series [3] (read-out: IC50), 1650 nM; at B2 bradykinin receptor, “Not Active”; in series [4], “Not Active”; on Progesterone receptor, “Not Active”. Further, the Ki (commonly the dissociation constant of the complex between target and ligand, obtained from inhibition or displacement) in series [3] was 230 nM.
For the compound `CO[C@@H]1[C@@H](OC)[C@H](C)[C@@](O)(CC(=O)O)O[C@H]1[C@H](C)[C@H]1O[C@@]2(CC[C@@](C)([C@H]3CC[C@@](C)([C@@H]4O[C@@H]([C@H]5O[C@](C)(O)[C@H](C)C[C@@H]5C)C[C@@H]4O[C@@H]4C[C@H](OC)[C@@H](OC)[C@H](C)O4)O3)O2)C[C@H](O)[C@H]1C` [MADURAMICIN ACID], the IC50 entry (in series [1]; in series [2]; in series [3] (cho-k1); against B2 bradykinin receptor; in series [4]; on Progesterone receptor) was “Not Active” each time. For the same compound, in series [2], the Ki entry is given as “Not Active”.
Turning to `CN[C@H]1CC[C@@H](c2ccc(Cl)c(Cl)c2)c2ccccc21` [SERTRALINE], the half-maximal inhibitory concentration (IC50) result in series [1] was “Not Active”; in series [3] (read-out: IC50) it was 2630 nM; against B2 bradykinin receptor, “Not Active”; in series [4] it was “Not Active”; against Cytochrome P450 2D6, “Not Active”; at Progesterone receptor it was “Not Active”. Moreover, the Ki is 367 nM in series [3] and “Not Active” on Cytochrome P450 2D6.
Regarding `CCN(CC)CC(=O)Nc1c(C)cccc1C` [LIDOCAINE], the IC50 result (in series [1]; in series [2]; in series [3] (cho-k1); on B2 bradykinin receptor; in series [4]; on Progesterone receptor) was “Not Active” each time. For the same compound, in series [2], the Ki entry is “Not Active”.
`CN(C)CCOC(c1ccccc1)c1ccccc1` [DIPHENHYDRAMINE]: the half-inhibitory concentration (IC50) entry (in series [1]; on B2 bradykinin receptor; in series [4]; on Progesterone receptor) was “Not Active” in each case.
In the case of `CN(C/C=C/C#CC(C)(C)C)Cc1cccc2ccccc12` [TERBINAFINE], the IC50 result (in series [1]; in series [2]; in series [3] (cho-k1); against B2 bradykinin receptor; in series [4]; on Progesterone receptor) was “Not Active” each time. Further, the Ki result in series [2] is listed as “Not Active”.
For the compound `CCCCNc1ccc(C(=O)OCCN(C)C)cc1` [TETRACAINE], the IC50 result (in series [1]; in series [2]; in series [3] (cho-k1); at B2 bradykinin receptor; in series [4]; on Progesterone receptor) was “Not Active” in each case. The Ki result in series [2] is listed as “Not Active”.
Take `Cc1c(C)c2c(c(C)c1O)CCC(C)(CN1CCN(c3cc(N4CCCC4)nc(N4CCCC4)n3)CC1)O2` (stereo not given): the IC50 result (in series [1]; in series [2]; in series [3] (cho-k1); on B2 bradykinin receptor; in series [4]; on Progesterone receptor) was “Not Active” each time. Besides, the Ki result in series [2] is “Not Active”.
Take `Clc1ccccc1CN1CCc2sccc2C1` [TICLOPIDINE]: the IC50 entry (in series [1]; in series [2]; in series [3] (cho-k1); at B2 bradykinin receptor; in series [4]; on Progesterone receptor) was “Not Active” throughout. For the same compound, the Ki result in series [2] is reported as “Not Active”.
Regarding `Fc1ccc(C(c2ccc(F)cc2)N2CCN(C/C=C/c3ccccc3)CC2)cc1` [FLUNARIZINE], the IC50 result in series [1] is “Not Active”; in series [3] (read-out: IC50) it was 5660 nM; on B2 bradykinin receptor, “Not Active”; in series [4], “Not Active”; on Cytochrome P450 2D6 it was “Not Active”; on Progesterone receptor, “Not Active”. Moreover, the Ki in series [3] is 789 nM; on Cytochrome P450 2D6 it was “Not Active”.
In the case of `CNCCC(Oc1ccc(C(F)(F)F)cc1)c1ccccc1` (stereo not given) [FLUOXETINE], the IC50 entry (in series [1]; in series [3] (cho-k1); at B2 bradykinin receptor; in series [4]; at Progesterone receptor) was “Not Active” throughout.
Consider `Cc1ccc(NC(=O)c2ccc(CN3CCN(C)CC3)cc2)cc1Nc1nccc(-c2cccnc2)n1` [IMATINIB], for which the IC50 entry (in series [1]; in series [3] (cho-k1); against B2 bradykinin receptor; in series [4]; at Cytochrome P450 2D6; on Progesterone receptor) was “Not Active” in each case. Also, the Ki entry on Cytochrome P450 2D6 is recorded as “Not Active”.
As for `Clc1ccc(COC(Cn2ccnc2)c2ccc(Cl)cc2Cl)cc1` (stereo not given) [ECONAZOLE], the half-inhibitory concentration (IC50) entry in series [1] was “Not Active”; in series [3] (read-out: IC50) it was 2120 nM; on B2 bradykinin receptor it was “Not Active”; in series [4], “Not Active”; on Progesterone receptor (read-out: IC50), 10200 nM. Besides, the Ki came to 296 nM in series [3] and 1330 nM at Progesterone receptor (read-out: Ki).
`C[C@H]1C[C@@H]2[C@H]([C@@H](O)C[C@@]3(C)[C@H]2CC[C@]3(O)C(=O)CO)[C@@]2(C)C=CC(=O)C=C12` [METHYLPREDNISOLONE]: the IC50 result (in series [1]; in series [2]; in series [3] (cho-k1); against B2 bradykinin receptor; in series [4]; on Progesterone receptor) was “Not Active” throughout. Besides, the Ki entry in series [2] is “Not Active”.
Turning to `COc1cc2nc(N3CCN(C(=O)C4CCCO4)CC3)nc(N)c2cc1OC` (stereo not given) [TERAZOSIN], the IC50 result (in series [1]; in series [2]; in series [3] (cho-k1); on B2 bradykinin receptor; in series [4]; against Cytochrome P450 2D6) was “Not Active” in each case. The Ki entry (in series [2]; at Cytochrome P450 2D6) was “Not Active” in each case.
